Counter-ions that a name gives are not always drawn. Like-named read-outs stand apart in the source and are kept apart here. Starred links: 1 amine or outer side, 2 acyl side, 3 side chain; linkers in the order of their positions; H or OH if unused. Positions of bridges follow the written chain, without caps; N, C: chain ends. Non-standard residues stand in square brackets, D forms with d. Residues, ends and D or L forms follow the SMILES beside them. *: point of attachment. hTyr(3S-OH,4S-OH,3'-OSO3H) = N[C@H](C(=O)O)[C@H](O)[C@@H](O)c1ccc(O)c(OS(=O)(=O)O)c1; Orn(4R-OH,5R-OH) = O=C([C@H](C[C@@H](O)[C@@H](O)N[*:3])N[*:1])[*:2]; Pro(3S-OH,4S-Me) = C[C@H]1CN[C@H](C(=O)O)[C@H]1O; X1 = CCCCCOc1ccc(-c2cc(-c3ccc(C(=O)*)cc3)no2)cc1; Gln(3R-OH) = NC(=O)C[C@@H](O)[C@H](N)C(=O)O; Hyp = O=C(O)[C@@H]1C[C@@H](O)CN1
Tests used:
Assay type in all cases: biochemical
recombinant PRL-1 = biological target: T1, recombinant PRL-1 (Homo sapiens, UniProt Q93096); test: In vitro phosphatase assay (DiFMUP hydrolysis), PRL-1; note: test concentration or dose not given here
T1 construct: 6xHis (N, cleaved yes); made in house; host or cells: E. coli One Shot BL21 Star
T1 sequence (Q93096 1-173): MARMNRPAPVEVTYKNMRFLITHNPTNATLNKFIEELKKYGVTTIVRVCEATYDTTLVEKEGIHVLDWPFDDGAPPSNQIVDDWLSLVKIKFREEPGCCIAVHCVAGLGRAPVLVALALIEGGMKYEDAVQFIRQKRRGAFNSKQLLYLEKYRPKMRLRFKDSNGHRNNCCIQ

recombinant PRL-3 = biological target: T2, recombinant PRL-3 (Homo sapiens, UniProt O75365); test: In vitro phosphatase assay (DiFMUP hydrolysis), PRL-3; note: test concentration or dose not given here
T2 construct: 6xHis (N, cleaved yes); made in house; host or cells: E. coli One Shot BL21 Star

recombinant PRL-2 = biological target: T3, recombinant PRL-2 (Homo sapiens, UniProt Q12974); test: In vitro phosphatase assay (DiFMUP hydrolysis), PRL-2;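 note: PRL-2 activity read as DiFMUP hydrolysis after 20 min at room temperature with drug, enzyme first pre-reduced at 4 °C for 20 min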
T3 construct: 6xHis (N, cleaved yes); made in house; host or cells: E. coli One Shot BL21 Star
T3 sequence (Q12974 1-167): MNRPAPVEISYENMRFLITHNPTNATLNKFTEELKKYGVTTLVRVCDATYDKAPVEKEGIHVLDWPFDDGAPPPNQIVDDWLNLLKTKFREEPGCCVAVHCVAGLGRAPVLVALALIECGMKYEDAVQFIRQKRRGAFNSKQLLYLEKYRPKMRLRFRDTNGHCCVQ

[1] = FDA-approved drug screen, compared to DMSO

T2 sequence (O75365 whole entry): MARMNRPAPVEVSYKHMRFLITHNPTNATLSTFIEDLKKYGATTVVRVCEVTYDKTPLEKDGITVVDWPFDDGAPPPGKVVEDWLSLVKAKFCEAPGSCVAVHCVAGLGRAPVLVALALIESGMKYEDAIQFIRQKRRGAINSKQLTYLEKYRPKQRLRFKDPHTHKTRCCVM

SMILES	% Phosphatase Activity (compared to DMSO) PRL-1 (recombinant PRL-1; [1])	% Phosphatase Activity (compared to DMSO) PRL-3 (recombinant PRL-3; [1])	% Phosphatase Activity (compared to DMSO) PRL-2 (recombinant PRL-2; [1])	% Phosphatase Activity (compared to DMSO) PRL-1 (recombinant PRL-1)	% Phosphatase Activity (compared to DMSO) PRL-3 (recombinant PRL-3)	% Phosphatase Activity (compared to DMSO) PRL-2 (recombinant PRL-2)
C=C1c2cccc(O)c2C(=O)C2=C(O)[C@]3(O)C(=O)C(C(N)=O)=C(O)[C@@H](N(C)C)[C@@H]3[C@@H](O)[C@H]12 [Methacycline HCl]	82%	83%	65%	–	–	–
CC(=O)/N=c1/sc(S(N)(=O)=O)nn1C [Methazolamide]	110%	88%	114%	–	–	–
C1N2CN3CN1CN(C2)C3 [Methenamine]	112%	87%	109%	–	–	–
Cn1cc[nH]c1=S [Methimazole]	104%	82%	97%	–	–	–
COc1ccccc1OCC(O)COC(N)=O (stereo not drawn) [Methocarbamol]	92%	100%	91%	–	–	–
CN(Cc1cnc2nc(N)nc(N)c2n1)c1ccc(C(=O)N[C@@H](CCC(=O)O)C(=O)O)cc1 [Methotrexate]	92%	70%	83%	–	–	–
COc1c2occc2cc2ccc(=O)oc12 [Methoxsalen]	81%	78%	99%	–	–	–
C[N+]1(C)[C@@H]2C[C@@H](OC(=O)[C@H](CO)c3ccccc3)C[C@H]1[C@@H]1O[C@@H]12 [Methscopolamine]	86%	88%	107%	–	–	–
CN1C(CCl)Nc2cc(Cl)c(S(N)(=O)=O)cc2S1(=O)=O (stereo not drawn) [Methyclothiazide]	100%	62%	114%	–	–	–
C[C@](N)(Cc1ccc(O)c(O)c1)C(=O)O [Methyldopa]	98%	70%	95%	–	–	–
CN(C)c1ccc2nc3ccc(=[N+](C)C)cc-3sc2c1 [Methylene Blue]	55%	45%	72%	–	–	–
C[C@H]1C[C@@H]2[C@H]([C@@H](O)C[C@@]3(C)[C@H]2CC[C@]3(O)C(=O)CO)[C@@]2(C)C=CC(=O)C=C12 [Methylprednisolone]	90%	92%	95%	–	–	–
Cc1cc(=O)[nH]c(=S)[nH]1 [Methylthiouracil]	110%	75%	93%	–	–	–
Cc1cc2c(cc1S(N)(=O)=O)S(=O)(=O)CCC2 [Meticrane]	104%	83%	94%	–	–	–
CCN(CC)CCNC(=O)c1cc(Cl)c(N)cc1OC.Cl [MetoclopraMide HCl]	97%	75%	84%	–	–	–
Cc1ccccc1N1C(=O)c2cc(S(N)(=O)=O)c(Cl)cc2NC1C (stereo not drawn) [Metolazone]	144%	121%	163%	–	–	–
COCCc1ccc(OCC(O)CNC(C)C)cc1 (stereo not drawn) [Metoprolol Tartrate]	89%	98%	109%	–	–	–

SMILES	% Phosphatase Activity (compared to DMSO) PRL-1 (recombinant PRL-1; [1])	% Phosphatase Activity (compared to DMSO) PRL-3 (recombinant PRL-3; [1])	% Phosphatase Activity (compared to DMSO) PRL-2 (recombinant PRL-2; [1])	% Phosphatase Activity (compared to DMSO) PRL-1 (recombinant PRL-1)	% Phosphatase Activity (compared to DMSO) PRL-3 (recombinant PRL-3)	% Phosphatase Activity (compared to DMSO) PRL-2 (recombinant PRL-2)
Cc1ncc([N+](=O)[O-])n1CCO [Metronidazole]	89%	87%	92%	–	–	–
CC[C@H](C)C(=O)O[C@H]1CCC=C2C=C[C@H](C)[C@H](CC[C@@H]3C[C@@H](O)CC(=O)O3)[C@H]21 [Mevastatin]	88%	71%	89%	–	–	–
Cc1cccc(C)c1OCC(C)N (stereo not drawn) [Mexiletine HCl]	–	–	–	98%	78%	106%
CC1(C)S[C@@H]2[C@H](NC(=O)[C@H](NC(=O)N3CCN(S(C)(=O)=O)C3=O)c3ccccc3)C(=O)N2[C@H]1C(=O)O [Mezlocillin Sodium]	92%	67%	91%	–	–	–
CN1CCN2c3ccccc3Cc3ccccc3C2C1 (stereo not drawn) [Mianserin HCl]	95%	59%	99%	–	–	–
CCCCCOc1ccc(-c2cc(-c3ccc(C(=O)N[C@H]4C[C@@H](O)[C@@H](O)NC(=O)[C@@H]5[C@@H](O)[C@@H](C)CN5C(=O)[C@H]([C@H](O)CC(N)=O)NC(=O)[C@H]([C@H](O)[C@@H](O)c5ccc(O)c(OS(=O)(=O)[O-])c5)NC(=O)[C@@H]5C[C@@H](O)CN5C(=O)[C@H]([C@@H](C)O)NC4=O)cc3)no2)cc1.[Na+] [Micafungin Sodium] (X1-[Orn(4R-OH,5R-OH)]T[Hyp][hTyr(3S-OH,4S-OH,3'-OSO3H)][Gln(3R-OH)][Pro(3S-OH,4S-Me)]; lactam 1-C)	74%	49%	90%	–	–	–
Clc1ccc(COC(Cn2ccnc2)c2ccc(Cl)cc2Cl)c(Cl)c1 (stereo not drawn) [Miconazole Nitrate]	98%	92%	93%	–	–	–
Clc1ccc(COC(Cn2ccnc2)c2ccc(Cl)cc2Cl)c(Cl)c1 (stereo not drawn) [Miconazole]	109%	86%	101%	–	–	–
CC#C[C@]1(O)CC[C@H]2[C@@H]3CCC4=CC(=O)CCC4=C3[C@@H](c3ccc(N(C)C)cc3)C[C@@]21C [Mifepristone]	96%	95%	135%	–	–	–
OCCN1C[C@H](O)[C@@H](O)[C@H](O)[C@H]1CO [Miglitol]	114%	88%	120%	–	–	–
CCN(CC)C(=O)C1(c2ccccc2)CC1CN.Cl (stereo not drawn) [Milnacipran HCl]	114%	80%	107%	–	–	–
Cc1[nH]c(=O)c(C#N)cc1-c1ccncc1 [Milrinone]	98%	83%	110%	–	–	–
CCCCCCCCCCCCCCCCOP(=O)([O-])OCC[N+](C)(C)C [Miltefosine]	92%	122%	94%	–	–	–
CN(C)c1ccc(O)c2c1C[C@H]1C[C@H]3[C@H](N(C)C)C(O)=C(C(N)=O)C(=O)[C@@]3(O)C(O)=C1C2=O [Minocycline HCl]	84%	104%	70%	–	–	–
Nc1nc(CC(=O)Nc2ccc(CCNC[C@H](O)c3ccccc3)cc2)cs1 [Mirabegron]	104%	88%	113%	–	–	–
CN1CCN2c3ncccc3Cc3ccccc3C2C1 (stereo not drawn) [Mirtazapine]	92%	98%	114%	–	–	–
CO[C@@]12[C@H](COC(N)=O)C3=C(C(=O)C(C)=C(N)C3=O)N1C[C@@H]1N[C@@H]12 [Mitomycin C]	68%	64%	54%	–	–	–

Source: publication PMC8119466, “A screen of FDA-approved drugs identifies inhibitors of protein tyrosine phosphatase 4A3 (PTP4A3 or PRL-3)” (Scientific Reports, 2021)
